SMILES strings stand for the structures.

Chain of RORγt (P51449 269-508): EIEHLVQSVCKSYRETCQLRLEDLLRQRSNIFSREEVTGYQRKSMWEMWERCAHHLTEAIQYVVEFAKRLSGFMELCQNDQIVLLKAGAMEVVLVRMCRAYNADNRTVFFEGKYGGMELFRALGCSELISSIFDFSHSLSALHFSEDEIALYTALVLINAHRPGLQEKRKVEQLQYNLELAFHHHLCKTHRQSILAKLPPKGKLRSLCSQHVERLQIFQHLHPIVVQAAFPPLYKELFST

The test has as its target RORγt (Homo sapiens (Human), UniProt P51449). Description: Gal4 ligand binding assay (RORγt Gal fusion luciferase reporter assay in HEK293T cells). The conditions noted are these: RORγt inverse agonists in RORγt Gal fusion assay. In kind it is cell-based. The protocol:
The N-terminal DNA binding domains (DBD) of the native RORγ and RORγt receptors have been substituted with that of the yeast GAL4-DBD and stably transfected in HEK293T cells that also stably express luciferase under the regulation by upstream activation sequence of yeast Gal4. These cells constitutively express high level RORγ activity due to binding of endogenous co-factors. Both agonist and inverse agonist activity can be detected. The assay was performed according to kit manufacturer's instructions as follows. 10 mM compound stocks were diluted serially 1:3 with DMSO and further diluted with provided media to generate 10 titration points from 60 μM to 3 nM. These treatment conditions were added to the plates as 2× media in 100 μL volume. Each plate includes a positive control with 10 titration points as well as 6 negative control wells with vehicle only, with final DMSO concentration of 0.2%. RORγ reporter cells were rapidly thawed and added to the plates in 100 μL volume. The plates were incubated for 24 h in a 37° C. humidified 5% CO2 incubator. Media was removed before the addition of room temperature luciferous detection substrate. After 5 minute incubation, relative light units (RLUs) were quantified using a plate reading luminometer. Data was normalized to […] with only 0.2%0DMSO. Before establishing internal controls, ursolic acid was used as control.
A general note: Reporter assays use an easily measured gene product as a stand-in for the process of interest.
In the case of `CCc1cc(CN2CC3(C2)CN(S(=O)(=O)C2CC2)C3)ccc1-c1ccc(C(O)(C(F)(F)F)C(F)(F)F)cc1` [Example 41, 2-(4′-((6-(cyclopropylsulfonyl)-2,6-diazaspiro[3.3]heptan-2-yl)methyl)-2′-ethyl-[1,1′-biphenyl]-4-yl)-1,1,1,3,3,3-hexafluoropropan-2-ol], the IC50 lay within 50 to 250 nM. In the case of `CCc1cc(CN2CCC3(CC2)CN(S(C)(=O)=O)C3)ccc1-c1ccc(C(O)(C(F)(F)F)C(F)(F)F)cc1` [Example 4, 2-(2′-ethyl-4′-((2-(methylsulfonyl)-2,7-diazaspiro[3.5]nonan-7-yl)methyl)-[1,1′-biphenyl]-4-yl)-1,1,1,3,3,3-hexafluoropropan-2-ol], the IC50 was < 50 nM. In turn, `CS(=O)(=O)N1CC2(CN(Cc3ccc(-c4ccc(C(O)(C(F)(F)F)C(F)(F)F)cc4)c(Br)c3)C2)C1` [Example 45, 2-(2′-bromo-4′-((6-(methylsulfonyl)-2,6-diazaspiro[3.3]heptan-2-yl)methyl)-[1,1′-biphenyl]-4-yl)-1,1,1,3,3,3-hexafluoropropan-2-ol] returned an IC50 of 50 to 250 nM.

As to `CC(C)(C)c1cc(CN2CC3(C2)CN(S(C)(=O)=O)C3)ccc1-c1ccc(C(O)(C(F)(F)F)C(F)(F)F)cc1` [Example 23, 2-(2′-(tert-butyl)-4′-((6-(methylsulfonyl)-2,6-diazaspiro[3.3]heptan-2-yl)methyl)-[1,1′-biphenyl]-4-yl)-1,1,1,3,3,3-hexafluoropropan-2-ol], the IC50 is < 50 nM.

`COc1cc(CN2CC3(C2)CN(S(C)(=O)=O)C3)ccc1-c1ccc(C(O)(C(F)(F)F)C(F)(F)F)cc1C` [Example 57, 1,1,1,3,3,3-hexafluoro-2-(2′-methoxy-2-methyl-4′-((6-(methylsulfonyl)-2,6-diazaspiro[3.3]heptan-2-yl)methyl)-[1,1′-biphenyl]-4-yl)propan-2-ol]: the half-maximal inhibitory concentration (IC50) is < 50 nM. On to `CCc1cc(CN2CC3(C2)CN(S(C)(=O)=O)C3)c(F)cc1-c1ccc(C(O)(C(F)(F)F)C(F)(F)F)cc1F` [Example 82, 2-(2′-ethyl-2,5′-difluoro-4′-((6-(methylsulfonyl)-2,6-diazaspiro[3.3]heptan-2-yl)methyl)-[1,1′-biphenyl]-4-yl)-1,1,1,3,3,3-hexafluoropropan-2-ol], for which the IC50 is < 50 nM. The value for `CCc1cc(CN2CC3(C2)CN(S(C)(=O)=O)C3)ccc1-c1ccc(C(O)(C(F)(F)F)C(F)(F)F)cc1CC` [Example 77, 2-(2,2′-diethyl-4′-((6-(methylsulfonyl)-2,6-diazaspiro[3.3]heptan-2-yl)methyl)-[1,1′-biphenyl]-4-yl)-1,1,1,3,3,3-hexafluoropropan-2-ol] was < 50 nM.

In the case of `CCc1cc(CN2CC3(C2)CN(S(C)(=O)=O)C3)ccc1-c1ccc(C(O)(C(F)(F)F)C(F)(F)F)cc1C` [Example 39, 2-(2′-ethyl-2-methyl-4′-((6-(methylsulfonyl)-2,6-diazaspiro[3.3]heptan-2-yl)methyl)-[1,1′-biphenyl]-4-yl)-1,1,1,3,3,3-hexafluoropropan-2-ol], the IC50 was < 50 nM. For the compound `CCc1cc(CN2CC3(C2)CN(S(C)(=O)=O)C3)ccc1-c1ccc(C(O)(C(F)(F)F)C(F)(F)F)cc1C#N` [Example 65, 2′-ethyl-4-(1,1,1,3,3,3-hexafluoro-2-hydroxypropan-2-yl)-4′-((6-(methylsulfonyl)-2,6-diazaspiro[3.3]heptan-2-yl)methyl)-[1,1′-biphenyl]-2-carbonitrile], the IC50 was < 50 nM. With `CCc1cc(CN2CC3(CCN(S(C)(=O)=O)C3)C2)ccc1-c1ccc(C(O)(C(F)(F)F)C(F)(F)F)cc1` [Example 6, 2-(2′-ethyl-4′-((6-(methylsulfonyl)-2,6-diazaspiro[3.4]octan-2-yl)methyl)-[1,1′-biphenyl]-4-yl)-1,1,1,3,3,3-hexafluoropropan-2-ol], the IC50 lay in the range of 50 to 250 nM. As for `Cc1cc(C(O)(C(F)(F)F)C(F)(F)F)ccc1-c1cccc(N2CC3(C2)CN(S(C)(=O)=O)C3)c1C` [Example 66, 2-(2,2′-dimethyl-3′-(6-(methylsulfonyl)-2,6-diazaspiro[3.3]heptan-2-yl)-[1,1′-biphenyl]-4-yl)-1,1,1,3,3,3-hexafluoropropan-2-ol], the IC50 was in the range of 50 to 250 nM.

As to `CCc1cc(CN2CC3(CC[S+]([O-])C3)C2)ccc1-c1ccc(C(O)(C(F)(F)F)C(F)(F)F)cc1` (centres unmarked) [Example 25, 2-((2-ethyl-4′-(1,1,1,3,3,3-hexafluoro-2-hydroxypropan-2-yl)-[1,1′-biphenyl]-4-yl)methyl)-6-thia-2-azaspiro[3.4]octane 6-oxide], the IC50 was > 250 nM.

As to `CCc1c(-c2ccc(C(O)(C(F)(F)F)C(F)(F)F)cc2)ccc(CN2CC3(C2)CN(S(C)(=O)=O)C3)c1F` [Example 37, 2-(2′-ethyl-3′-fluoro-4′-((6-(methylsulfonyl)-2,6-diazaspiro[3.3]heptan-2-yl)methyl)-[1,1′-biphenyl]-4-yl)-1,1,1,3,3,3-hexafluoropropan-2-ol], the IC50 was < 50 nM. As to `CCc1cc(CN2CC3(CCS(=O)(=O)CC3)C2)ccc1-c1ccc(C(O)(C(F)(F)F)C(F)(F)F)cc1` [Example 3, 2-((2-ethyl-4′-(1,1,1,3,3,3-hexafluoro-2-hydroxypropan-2-yl)-[1,1′-biphenyl]-4-yl)methyl)-7-thia-2-azaspiro[3.5]nonane 7,7-dioxide], the IC50 is < 50 nM. In the case of `CCc1cc(CN2CCC3(CNC(=O)C3)C2)ccc1-c1ccc(C(O)(C(F)(F)F)C(F)(F)F)cc1` (centres unmarked) [Example 54, 7-((2-ethyl-4′-(1,1,1,3,3,3-hexafluoro-2-hydroxypropan-2-yl)-[1,1′-biphenyl]-4-yl)methyl)-2,7-diazaspiro[4.4]nonan-3-one], the IC50 lay within 50 to 250 nM.

Regarding `CCc1cc(CN2CC3(C2)CN(S(C)(=O)=O)C3)ncc1-c1ccc(C(O)(C(F)(F)F)C(F)(F)F)cc1` [Example 60, 2-(4-(4-ethyl-6-((6-(methylsulfonyl)-2,6-diazaspiro[3.3]heptan-2-yl)methyl)pyridin-3-yl)phenyl)-1,1,1,3,3,3-hexafluoropropan-2-ol], the IC50 was < 50 nM. `CCc1cc(CN2CCC(CS(C)(=O)=O)CC2)ccc1-c1ccc(C(O)(C(F)(F)F)C(F)(F)F)cc1` [Example 9, 2-(2′-ethyl-4′-((4-((methylsulfonyl)methyl)piperidin-1-yl)methyl)-[1,1′-biphenyl]-4-yl)-1,1,1,3,3,3-hexafluoropropan-2-ol] displayed an IC50 of 50 to 250 nM. Take `CC(=O)N1CC2(CN(Cc3ccc(-c4ccc(C(O)(C(F)(F)F)C(F)(F)F)cc4)c(C)c3)C2)C1` [Example 49, 1-(6-((4′-(1,1,1,3,3,3-hexafluoro-2-hydroxypropan-2-yl)-2-methyl-[1,1′-biphenyl]-4-yl)methyl)-2,6-diazaspiro[3.3]heptan-2-yl)ethan-1-one]: the IC50 is > 250 nM. Take `CCc1cc(CN2CC3(C2)CN(S(=O)(=O)CC)C3)ccc1-c1ccc(C(O)(C(F)(F)F)C(F)(F)F)cc1` [Example 22, 2-(2′-ethyl-4′-((6-(ethylsulfonyl)-2,6-diazaspiro[3.3]heptan-2-yl)methyl)-[1,1′-biphenyl]-4-yl)-1,1,1,3,3,3-hexafluoropropan-2-ol]: the IC50 was in the range of 50 to 250 nM. Regarding `CCc1cc(CN2CC3(C2)CN(C(C)=O)C3)ccc1-c1ccc(C(O)(C(F)(F)F)C(F)(F)F)cc1` [Example 48, 1-(6-((2-ethyl-4′-(1,1,1,3,3,3-hexafluoro-2-hydroxypropan-2-yl)-[1,1′-biphenyl]-4-yl)methyl)-2,6-diazaspiro[3.3]heptan-2-yl)ethan-1-one], the IC50 is > 250 nM.

What is called IC50 is the midpoint of a concentration-inhibition curve. Read a low IC50 as greater potency.

The record behind these values is patent US11242350B2, “Spirocyclic ROR-gamma modulators” (Escalier Biosciences B.V., priority 2018, dated 2022).
